Experimental data: patent US20200393397A1, “DEVICE FOR PERFORMING ELECTRICAL MEASUREMENTS” (Mimetas B.V., priority 2018, published 2020)

Test system: Caco-2 tubules
Experiment: TEER measurement of Caco-2 tubules in 2-lane Organoplate during staurosporine exposure
Type: cell-based, human
Protocol: Day 0: Collagen-1 gel was injected into one of the channels (gel channel) of a 2-lane Organoplate. After curing of the gel, Caco-2 cells (Sigma, human colon carcinoma cells) in culture medium were seeded in the other channel (perfusion channel) and allowed to proliferate. Culture medium was refreshed daily. […] Following this protocol, 40 chips, comprising a gel channel and a perfusion channel separated by a phaseguide, were seeded with Caco-2 cells, meaning that 40 tubules were grown simultaneously in a single 2-lane Organoplate. The method of culturing cells in this system is similar to the one described by Trietsch et al (Nature Communications, volume 8, Article number: 262(2017), doi:10.1038/s41467-017-00259-3).
A TEER measurement was performed daily at days 1 to 11. To this end, gold plated electrodes were inserted into the access wells of the gel and perfusion channel. For 5 to 10 seconds per chip, impedance spectra were recorded at frequencies ranging logarithmically from 10 Hz to 1 MHz.
At day 5, the 40 Caco-2 tubules were exposed to different concentrations of staurosporine (Sigma, S4400) for 12 hours.

CN[C@@H]1C[C@H]2O[C@@](C)([C@@H]1OC)n1c3ccccc3c3c4c(c5c6ccccc6n2c5c31)C(=O)NC4 [staurosporine]
effect on the TEER (day 5, concentration of 47 nM, 12 hours exposure (FIG. 8)): an effect on the TEER can be observed | effect on the TEER values (day 5, exposure to different concentrations for 12 hours (FIG. 8)): concentration dependent effect
